Laboratory results as given in patent US10639287B2, “Compounds for the treatment of mitochondrial diseases” (UNIVERSITE PARIS-SUD, priority 2014, dated 2020).

Tests used:
[1] = tested on: mutated mip1 yeast strains; experiment: Production of small colonies in mutated mip1 yeast strains; assay type: cell-based, Saccharomyces cerevisiae
Method: The rate of small cells in a population represents the cells not breathing due to rearrangements of the mtDNA and/or having lost their mtDNA.
From a pre-culture in selective medium (SC-TRP, 2% ethanol (v/v)) of the mutated mip1 strain, 2.10^5 cells/mL were seeded in 2 mL of rich YPD medium (1% Yeast Extract, 0.5% Bacto Peptone, 2% Glucose) in the presence of 32 μM clofilium tosylate or DMSO. The cells were then incubated at 28° C. for two cycles of 24 hours. The cells were then diluted to have about 200 to 250 cells per dish and spread on differential synthetic medium (SC-TRP, 0.3% glucose, 2% ethanol). The number of small colonies was calculated after 6 days of incubation at 28° C. (Baruffini, E., Lodi, T., Dallabona, C., Puglisi, A., Zeviani, M. and Ferrero, I. (2006) Genetic and Chemical rescue of the Saccharomyces cerevisiae phenotype induced by mitochondrial DNA polymerase mutations associated with progressive external ophthalmoplegia in humans. Hum. Mol. Genet., 15, 2846-2855).
The effect of the clofilium tosylate on the production of small colonies was measured in 8 recessive mip1 mutants:
an in 3 dominant mip1 mutants: • Y757C (mutated domain: polymerase) • K749R (mutated domain: polymerase) • E698G (mutated domain: polymerase)

[2] = tested on: wild-type N2 BRISTOL line; conditions: Caenorhabditis elegans, in vivo, 4 days
Method: A series of NGM dishes containing clofilium tosylate at concentrations of 1 μM, 5 μM, 10 μM, 50 μM, 100 μM or 200 μM were prepared (three dishes for each concentration). Between 30 and 40 synchronised L1 larvae of the wild-type N2 BRISTOL line or mutated VC1224 line (polg-1(ok1458Δ/+)/mT1 II; +/mT1 [dpy-10(el28)] II), these being nematodes carrying a heterozygous deletion of 2149 bp in the sequence encoding the polg-1 gene, were deposited on each of these dishes.

[3] = tested on: haploinsufficient TB2143 nematodes (polg-1(ok1458Δ/+)); experiment: Test for resistance to ethidium bromide of haploinsufficient polg-1 nematodes; assay type: in vivo, Caenorhabditis elegans; conditions: 50 μM, 30 μg/mL ethidium bromide, 4 days
From the text: Ethidium bromide is an intercalating agent of DNA, especially of mtDNA, rich in adenine and thymidine. At high concentrations it halts the development of the worms at stage L3 (Addo, M. G., Cossard, R., Pichard, D., Obiri-Danso, K., Rötig, A. and Delahodde, A. (2010) Caenorhabditis elegans, a pluricellular model organism to screen new genes involved in mitochondrial genome maintenance. BBA-Mol. Basis Dis., 1802, 765-773. The haploinsufficient TB2143 nematodes (polg-1(ok1458Δ/+)) are highly sensitive to low doses of ethidium bromide (30 μg/mL) with 90% of the larvae halted at stage L3.
Around thirty wild-type larvae or larvae mutated in polg-1 (TB2143 line (polg-1(ok1458Δ/+))) synchronised at stage L1 were deposited on NGM dishes containing 30 μg mL ethidium bromide and either DMSO or 50 μM clofilium tosylate (experiment performed in triplicate). Larval development was examined after 4 days of treatment.

[4] = tested on: homozygous TB2143 nematodes (polg-1(ok1548Δ/Δ)); experiment: Gonad and/or intestinal extrusion (premature death) of homozygous nematodes; assay type: in vivo, Caenorhabditis elegans; conditions: 50 μM, until 7th day of adulthood
Method: Ten homozygous TB2143 larvae (polg-1(ok1548Δ/Δ)) at stage L4 were deposited on each NGM dish containing either DMSO or 50 μM clofilium tosylate (three dishes for each treatment group) and incubated at 20° C. Their survival was monitored until the 7th day of adulthood. The number of dead animals, not responding to any stimulation, and having intestinal and/or gonad extrusion was counted. The few animals that died of dehydration at the edge of the petri dishes were excluded from the analysis.

[5] = tested on: fibroblasts from a patient with a mutation on each allele of the POLG gene; experiment: Amount of mtDNA (qPCR) in patient fibroblasts, quiescent conditions; assay type: cell-based, human
Method: Skin fibroblasts from the control and from the patient were cultured to 100% confluence in DMEM at 37° C. under 5% CO2. At 100% confluence, the fibroblasts were washed with PBS and the quiescent medium was added (4.5 g/L D-glucose, 110 mg/L sodium pyruvate, 0.1% foetal bovine serum, 1% penicillin/streptomycin from the stock solution containing 10,000 I.U. penicillin and 10,000 μg/mL streptomycin). After four days in quiescent medium, […] or DMSO (0.1%) was added to the culture medium. The treatment was carried out for 18 days, changing the culture medium with or without clofilium tosylate every three days. […] The mtDNA and nuclear DNA were quantified by qPCR (Sarzi, E., Bourdon, A., Chrétien, D., Zarhrate, M., Corcos, J., Slama, A., Cormier-Daire, V., De Lonlay, P., Munnich, A. and Rötig, A. (2007) Mitochondrial DNA Depletion is a Prevalent Cause of Multiple Respiratory Chain Deficiency in Childhood. J Pediatr, 105, 531-534).
Skin fibroblasts from the patient were cultured to 100% confluence in DMEM at 37° C. under 5% CO2. […] The mtDNA and nuclear DNA were quantified by qPCR (Sarzi, E., Bourdon, A., Chrétien, D., Zarhrate, M., Corcos, J., Slama, A., Cormier-Daire, V., De Lonlay, P., Munnich, A. and Rötig, A. (2007) Mitochondrial DNA Depletion is a Prevalent Cause of Multiple Respiratory Chain Deficiency in Childhood. J Pediatr, 105, 531-534).

`CCCCCCC[N+](CC)(CC)CCCCc1ccc(Cl)cc1.Cc1ccc(S(=O)(=O)[O-])cc1` [clofilium tosylate] was tested, and the “production of small colonies of the mutant mip1^G651S yeast strain” value ([1]; 32 μM vs DMSO) was “reduced the production of small colonies”, the “production of cells not breathing (small colonies) in recessive and dominant mip1 mutants” value ([1]; 32 μM, irrespective of mutated MIP1 domain, except mutations producing more than 90% of small colonies) was “reduced the production of cells not breathing” and the “concentration at which a halt in development at stage L3 or a slowdown in development was observed” value [2] was 100 µM. For the same compound, the “maximum concentration to use” value [2] was 50 µM, the “resistance to ethidium bromide” value [3] was “increased resistance” and the “premature death by gonad and/or intestinal extrusion” value [4] was “reduced”. For the same compound, the “amount of mtDNA, quiescent conditions” value ([5]; Example 14, 18-day treatment) was “increased” and the “amount of mtDNA, quiescent conditions, dose-response” value ([5]; Example 25, concentrations of 0.5 μM and 1 μM, 18-day treatment) was “increased”.
